One experiment addresses T1, Kv4.3 (Homo sapiens, UniProt Q9UK17).
T1 sequence (Q9UK17 1-655): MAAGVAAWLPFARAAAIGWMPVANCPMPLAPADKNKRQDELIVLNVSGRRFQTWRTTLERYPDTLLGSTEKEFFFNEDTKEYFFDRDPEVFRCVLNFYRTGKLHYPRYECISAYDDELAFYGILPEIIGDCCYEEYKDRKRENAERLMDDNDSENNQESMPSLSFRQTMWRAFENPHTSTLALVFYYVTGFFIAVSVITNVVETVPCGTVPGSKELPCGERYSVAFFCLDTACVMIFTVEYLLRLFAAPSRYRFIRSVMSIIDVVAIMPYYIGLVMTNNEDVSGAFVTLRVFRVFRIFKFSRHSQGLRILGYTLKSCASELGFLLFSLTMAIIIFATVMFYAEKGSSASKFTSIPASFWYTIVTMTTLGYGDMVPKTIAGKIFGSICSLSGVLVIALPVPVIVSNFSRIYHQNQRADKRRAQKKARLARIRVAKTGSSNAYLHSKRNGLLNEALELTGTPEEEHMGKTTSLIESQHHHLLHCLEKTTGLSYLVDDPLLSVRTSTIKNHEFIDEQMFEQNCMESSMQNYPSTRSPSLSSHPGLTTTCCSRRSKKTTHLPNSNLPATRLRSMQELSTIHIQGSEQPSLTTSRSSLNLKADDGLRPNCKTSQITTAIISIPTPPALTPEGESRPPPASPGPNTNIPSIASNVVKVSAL
Description: Patch clamp assay, ion channel inhibition. Conditions: read-out: Mean % inhibition (positive control). (In patch-clamp work, channel activity is measured electrically.)

The next experiment concerns the target T2, HCN2 (Homo sapiens, UniProt Q9UL51).
T2 sequence (Q9UL51 1-889): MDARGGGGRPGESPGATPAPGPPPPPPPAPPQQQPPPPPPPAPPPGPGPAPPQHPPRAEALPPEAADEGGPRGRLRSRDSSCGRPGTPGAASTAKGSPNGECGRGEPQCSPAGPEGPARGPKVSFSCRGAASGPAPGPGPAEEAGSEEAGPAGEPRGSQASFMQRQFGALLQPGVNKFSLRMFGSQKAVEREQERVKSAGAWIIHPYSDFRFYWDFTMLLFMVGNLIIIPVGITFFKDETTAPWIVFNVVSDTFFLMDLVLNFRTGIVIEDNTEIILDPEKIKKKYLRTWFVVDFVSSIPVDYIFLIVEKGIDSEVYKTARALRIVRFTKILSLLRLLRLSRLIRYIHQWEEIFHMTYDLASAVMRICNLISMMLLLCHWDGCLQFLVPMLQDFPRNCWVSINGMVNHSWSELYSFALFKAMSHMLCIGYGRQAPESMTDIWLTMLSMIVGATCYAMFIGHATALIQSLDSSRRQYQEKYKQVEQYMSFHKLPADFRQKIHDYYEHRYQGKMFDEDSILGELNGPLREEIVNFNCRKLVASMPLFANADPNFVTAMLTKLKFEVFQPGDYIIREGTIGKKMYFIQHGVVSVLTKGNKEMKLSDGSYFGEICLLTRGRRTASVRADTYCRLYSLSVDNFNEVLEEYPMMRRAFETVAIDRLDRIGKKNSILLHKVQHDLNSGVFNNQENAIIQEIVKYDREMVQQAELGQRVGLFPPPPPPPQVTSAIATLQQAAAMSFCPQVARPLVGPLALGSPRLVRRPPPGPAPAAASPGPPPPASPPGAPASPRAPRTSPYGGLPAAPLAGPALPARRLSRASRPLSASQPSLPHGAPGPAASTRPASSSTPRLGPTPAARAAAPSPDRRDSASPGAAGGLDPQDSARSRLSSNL
Put plainly: Patch clamp assay, ion channel inhibition. Conditions: read-out: Mean % inhibition (positive control).

For another experiment, the target named is T3, HCN4 (Homo sapiens, UniProt Q9Y3Q4).
T3 sequence (Q9Y3Q4 1-1203): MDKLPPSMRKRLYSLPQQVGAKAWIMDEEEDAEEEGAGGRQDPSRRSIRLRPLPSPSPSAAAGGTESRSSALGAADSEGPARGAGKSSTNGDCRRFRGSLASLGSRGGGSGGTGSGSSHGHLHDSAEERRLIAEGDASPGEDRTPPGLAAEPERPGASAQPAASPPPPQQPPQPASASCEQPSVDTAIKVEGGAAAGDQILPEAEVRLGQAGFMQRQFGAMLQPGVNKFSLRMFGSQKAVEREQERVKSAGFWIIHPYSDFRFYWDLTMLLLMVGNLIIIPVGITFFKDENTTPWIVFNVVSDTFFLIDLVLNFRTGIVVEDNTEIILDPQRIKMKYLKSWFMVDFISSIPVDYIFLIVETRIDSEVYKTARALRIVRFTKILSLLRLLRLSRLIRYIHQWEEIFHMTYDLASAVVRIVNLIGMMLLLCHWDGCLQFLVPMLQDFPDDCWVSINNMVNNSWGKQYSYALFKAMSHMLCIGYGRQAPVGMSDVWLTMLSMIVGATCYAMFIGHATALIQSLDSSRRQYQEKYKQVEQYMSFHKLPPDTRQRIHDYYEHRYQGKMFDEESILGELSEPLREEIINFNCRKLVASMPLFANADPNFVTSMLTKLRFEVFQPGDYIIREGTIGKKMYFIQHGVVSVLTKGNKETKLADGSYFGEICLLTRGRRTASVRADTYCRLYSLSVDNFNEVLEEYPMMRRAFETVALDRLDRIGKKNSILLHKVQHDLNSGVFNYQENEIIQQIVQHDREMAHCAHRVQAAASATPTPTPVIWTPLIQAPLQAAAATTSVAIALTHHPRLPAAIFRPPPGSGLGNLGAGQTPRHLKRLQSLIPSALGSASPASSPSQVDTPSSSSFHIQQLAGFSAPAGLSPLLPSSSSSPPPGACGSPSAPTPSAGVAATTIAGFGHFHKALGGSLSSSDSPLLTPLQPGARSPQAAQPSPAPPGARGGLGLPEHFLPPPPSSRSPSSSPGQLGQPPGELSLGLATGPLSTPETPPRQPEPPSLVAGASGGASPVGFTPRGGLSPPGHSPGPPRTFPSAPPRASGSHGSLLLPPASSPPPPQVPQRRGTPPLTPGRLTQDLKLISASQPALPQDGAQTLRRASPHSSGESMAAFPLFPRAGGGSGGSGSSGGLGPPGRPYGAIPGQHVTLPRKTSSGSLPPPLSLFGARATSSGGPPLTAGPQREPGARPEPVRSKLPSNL
Description: Patch clamp assay, ion channel inhibition. Conditions: read-out: Mean % inhibition (positive control).

The target of the next experiment is T4, KvLQT/minK (Homo sapiens, UniProt P51787).
T4 construct: expressed in transfected cells
Put plainly: Patch clamp assay, ion channel inhibition. Format: cell-based. The conditions noted are these: 30 μM; n=2.

The next experiment addresses Cav3.2 (Homo sapiens, UniProt O95180). Format: cell-based. The conditions noted are these: 100 μM; n=2.

Cav3.2, sequence (O95180 whole entry): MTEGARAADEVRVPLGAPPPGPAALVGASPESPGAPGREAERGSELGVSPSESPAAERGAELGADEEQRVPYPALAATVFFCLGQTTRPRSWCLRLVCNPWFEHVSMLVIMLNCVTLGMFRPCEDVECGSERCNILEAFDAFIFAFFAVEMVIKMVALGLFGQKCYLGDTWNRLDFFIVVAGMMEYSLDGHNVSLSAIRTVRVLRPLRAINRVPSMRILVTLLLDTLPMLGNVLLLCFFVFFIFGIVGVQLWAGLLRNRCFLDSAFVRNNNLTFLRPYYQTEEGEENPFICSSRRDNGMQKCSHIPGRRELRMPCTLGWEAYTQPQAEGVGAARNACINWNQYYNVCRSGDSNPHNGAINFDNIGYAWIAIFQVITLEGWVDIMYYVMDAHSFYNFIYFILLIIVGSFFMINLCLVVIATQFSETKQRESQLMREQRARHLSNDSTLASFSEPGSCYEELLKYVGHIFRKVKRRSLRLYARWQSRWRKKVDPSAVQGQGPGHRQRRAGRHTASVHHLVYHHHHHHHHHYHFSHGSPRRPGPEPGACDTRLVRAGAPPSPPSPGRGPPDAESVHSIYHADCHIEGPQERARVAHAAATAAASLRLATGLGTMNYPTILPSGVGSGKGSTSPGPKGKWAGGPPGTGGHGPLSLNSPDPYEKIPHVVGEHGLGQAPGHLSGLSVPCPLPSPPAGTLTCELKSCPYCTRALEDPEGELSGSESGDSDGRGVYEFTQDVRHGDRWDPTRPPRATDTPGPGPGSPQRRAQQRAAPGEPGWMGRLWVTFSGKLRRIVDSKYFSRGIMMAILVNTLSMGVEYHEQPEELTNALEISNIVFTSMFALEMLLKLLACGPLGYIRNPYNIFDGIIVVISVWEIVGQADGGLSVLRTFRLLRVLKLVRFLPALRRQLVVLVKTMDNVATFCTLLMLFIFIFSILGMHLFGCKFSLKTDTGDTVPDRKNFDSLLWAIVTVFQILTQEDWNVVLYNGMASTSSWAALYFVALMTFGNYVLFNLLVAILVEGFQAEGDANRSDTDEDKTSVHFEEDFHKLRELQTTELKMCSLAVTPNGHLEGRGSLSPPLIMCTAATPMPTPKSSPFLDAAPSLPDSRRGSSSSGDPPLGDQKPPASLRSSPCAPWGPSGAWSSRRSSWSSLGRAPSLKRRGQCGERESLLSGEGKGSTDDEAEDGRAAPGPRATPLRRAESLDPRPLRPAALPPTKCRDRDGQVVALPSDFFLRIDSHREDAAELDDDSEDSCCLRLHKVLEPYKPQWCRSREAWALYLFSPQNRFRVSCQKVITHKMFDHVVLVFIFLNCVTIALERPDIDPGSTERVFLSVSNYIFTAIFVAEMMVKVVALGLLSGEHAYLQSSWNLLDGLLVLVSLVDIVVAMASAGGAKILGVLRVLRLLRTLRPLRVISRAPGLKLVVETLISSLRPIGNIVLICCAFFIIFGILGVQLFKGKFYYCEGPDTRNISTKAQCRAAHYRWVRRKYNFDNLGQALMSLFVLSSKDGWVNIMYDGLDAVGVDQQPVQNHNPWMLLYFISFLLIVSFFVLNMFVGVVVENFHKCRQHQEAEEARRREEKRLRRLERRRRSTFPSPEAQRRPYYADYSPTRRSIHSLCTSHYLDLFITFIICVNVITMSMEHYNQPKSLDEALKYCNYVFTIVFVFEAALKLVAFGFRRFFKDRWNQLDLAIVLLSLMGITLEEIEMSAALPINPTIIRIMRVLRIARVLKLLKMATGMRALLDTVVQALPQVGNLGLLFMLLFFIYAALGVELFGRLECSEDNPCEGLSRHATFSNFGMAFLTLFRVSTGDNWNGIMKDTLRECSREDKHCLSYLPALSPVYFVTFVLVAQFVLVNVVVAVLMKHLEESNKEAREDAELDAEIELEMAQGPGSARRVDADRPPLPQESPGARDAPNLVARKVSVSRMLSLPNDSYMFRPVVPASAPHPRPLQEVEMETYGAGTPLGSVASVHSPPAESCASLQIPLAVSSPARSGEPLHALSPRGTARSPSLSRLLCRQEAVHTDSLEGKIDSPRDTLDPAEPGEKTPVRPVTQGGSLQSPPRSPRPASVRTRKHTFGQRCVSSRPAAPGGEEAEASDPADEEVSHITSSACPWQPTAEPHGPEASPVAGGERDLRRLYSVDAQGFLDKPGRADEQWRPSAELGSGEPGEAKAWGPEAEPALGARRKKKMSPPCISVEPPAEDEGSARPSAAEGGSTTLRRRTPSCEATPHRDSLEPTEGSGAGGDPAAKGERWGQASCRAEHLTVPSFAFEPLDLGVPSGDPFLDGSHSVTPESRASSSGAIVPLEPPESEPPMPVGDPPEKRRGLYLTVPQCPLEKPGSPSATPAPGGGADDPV
T4 sequence (P51787 whole entry): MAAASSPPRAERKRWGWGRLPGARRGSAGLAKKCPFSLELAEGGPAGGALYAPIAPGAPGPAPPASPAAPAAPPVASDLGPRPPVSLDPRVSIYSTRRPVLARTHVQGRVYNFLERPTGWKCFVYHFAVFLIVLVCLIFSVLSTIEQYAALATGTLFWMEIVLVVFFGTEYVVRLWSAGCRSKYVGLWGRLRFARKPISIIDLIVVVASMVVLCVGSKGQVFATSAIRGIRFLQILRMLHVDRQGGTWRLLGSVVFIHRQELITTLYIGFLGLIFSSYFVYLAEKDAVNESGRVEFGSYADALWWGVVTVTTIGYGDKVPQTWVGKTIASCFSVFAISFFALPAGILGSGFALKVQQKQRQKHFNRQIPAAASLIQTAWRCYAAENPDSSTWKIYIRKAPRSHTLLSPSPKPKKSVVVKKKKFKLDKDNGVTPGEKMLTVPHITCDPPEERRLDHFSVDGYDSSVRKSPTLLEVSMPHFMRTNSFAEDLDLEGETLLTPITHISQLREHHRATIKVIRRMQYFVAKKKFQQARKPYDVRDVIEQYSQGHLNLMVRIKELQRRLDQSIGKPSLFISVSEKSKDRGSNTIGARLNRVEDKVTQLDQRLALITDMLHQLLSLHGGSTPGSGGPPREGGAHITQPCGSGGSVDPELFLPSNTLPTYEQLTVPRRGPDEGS
Description for Cav3.2: (§1) The studies were conducted according to the conventional procedures.
(§2) The exposure duration of each channel was 5 minutes. […] Any left current after exposure to this dose was digitally subtracted to eliminate the contribution of any endogenous current.
Description for HCN2: as §1, §2
Description for HCN4: as §1, §2
Description for Kv4.3: as §1, §2
Description for KvLQT/minK: as §1, §2

For orientation: inhibition means the share of the control response that was lost under treatment. On to `O=C(NCC1CCCCN1)c1cc(OCC(F)(F)F)ccc1OCC(F)(F)F` (centres unmarked) [Flecainide], for which the inhibition at 100 µM on Kv4.3 was 96.1%.
Turning to `COc1ccc(CCN(C)CCCN2CCc3cc(OC)c(OC)cc3CC2=O)cc1OC` [Zatebradine], at HCN2, the inhibition at 100 µM worked out at 96.1%. Also, the inhibition at 10 µM on HCN4 came out at 88.3%.
As for `CCS(=O)(=O)N(C)[C@H]1c2cc(C#N)ccc2OC(C)(C)[C@@H]1O` [Chromanol-293B], the “Mean % inhibition (positive control)” value at KvLQT/minK was determined as 87.8%.
Consider `[Ni]` [Nickel], for which, on Cav3.2, the “Mean % inhibition (positive control)” value was 76.6%.

Source of the values: patent publication US8541395B2 (priority 2009, dated 2013).
